Test results published in ChEMBL document CHEMBL5303573, “Mapping human microbiome drug metabolism by gut bacteria and their genes” (Nature, 2019).

What was measured:
[1] = The drug is tested on Bacteroides coprophilus strain: DSM18228 for biotransformation. The drug concentrations were measured before and after a 12-h incubation by liquid-chromatography-coupled mass spectrometry (LC–MS); details: 2 µM
[2] = bacteroides stercoris, 12 h, 2 µM
Description: The drug is tested on Bacteroides stercoris strain: ATCC43183 for biotransformation. The drug concentrations were measured before and after a 12-h incubation by liquid-chromatography-coupled mass spectrometry (LC–MS)

[3] = The drug is tested on Providencia stuartii strain: ATCC25827 for biotransformation. The drug concentrations were measured before and after a 12-h incubation by liquid-chromatography-coupled mass spectrometry (LC–MS); details: 2 µM
[4] = akkermansia muciniphila, 12 h, 2 µM
Description: The drug is tested on Akkermansia muciniphila strain: ATCC BAA-835 for biotransformation. The drug concentrations were measured before and after a 12-h incubation by liquid-chromatography-coupled mass spectrometry (LC–MS)

[5] = The drug is tested on Bacteroides vulgatus strain: ATCC8482 for biotransformation. The drug concentrations were measured before and after a 12-h incubation by liquid-chromatography-coupled mass spectrometry (LC–MS); details: phocaeicola vulgatus, 2 µM
[6] = The drug is tested on Dorea formicigenerans strain: ATCC27755 for biotransformation. The drug concentrations were measured before and after a 12-h incubation by liquid-chromatography-coupled mass spectrometry (LC–MS); details: 2 µM
[7] = parabacteroides johnsonii, 12 h, 2 µM
Description: The drug is tested on Parabacteroides johnsonii strain: DSM18315 for biotransformation. The drug concentrations were measured before and after a 12-h incubation by liquid-chromatography-coupled mass spectrometry (LC–MS)

[8] = The drug is tested on Bacteroides cellulosilyticus strain: DSM14838 for biotransformation. The drug concentrations were measured before and after a 12-h incubation by liquid-chromatography-coupled mass spectrometry (LC–MS); details: 2 µM
[9] = The drug is tested on Enterobacter cancerogenus strain: ATCC35316 for biotransformation. The drug concentrations were measured before and after a 12-h incubation by liquid-chromatography-coupled mass spectrometry (LC–MS); details: 2 µM
[10] = The drug is tested on Blautia hansenii strain: DSM20583 for biotransformation. The drug concentrations were measured before and after a 12-h incubation by liquid-chromatography-coupled mass spectrometry (LC–MS); details: 2 µM
[11] = parabacteroides distasonis, 12 h, 2 µM
Description: The drug is tested on Parabacteroides distasonis strain: ATCC8503 for biotransformation. The drug concentrations were measured before and after a 12-h incubation by liquid-chromatography-coupled mass spectrometry (LC–MS)

[12] = The drug is tested on Ruminococcus gnavus strain: ATCC29149 for biotransformation. The drug concentrations were measured before and after a 12-h incubation by liquid-chromatography-coupled mass spectrometry (LC–MS); details: mediterraneibacter gnavus, 2 µM
[13] = The drug is tested on Bacteroides fragilis strain: HMW615 for biotransformation. The drug concentrations were measured before and after a 12-h incubation by liquid-chromatography-coupled mass spectrometry (LC–MS); details: 2 µM
[14] = The drug is tested on Coprococcus comes strain: ATCC27758 for biotransformation. The drug concentrations were measured before and after a 12-h incubation by liquid-chromatography-coupled mass spectrometry (LC–MS); type: ADME; design: dose 2 uM, timepoint 0 vs 12 hours; details: 2 µM
[15] = The drug is tested on Edwardsiella tarda strain: ATCC23685 for biotransformation. The drug concentrations were measured before and after a 12-h incubation by liquid-chromatography-coupled mass spectrometry (LC–MS); details: 2 µM
[16] = The drug is tested on Bacteroides xylanisolvens strain: DSM18836 for biotransformation. The drug concentrations were measured before and after a 12-h incubation by liquid-chromatography-coupled mass spectrometry (LC–MS); details: 2 µM
[17] = enterocloster bolteae, 12 h, 2 µM
Description: The drug is tested on Clostridium bolteae strain: ATCCBAA-613 for biotransformation. The drug concentrations were measured before and after a 12-h incubation by liquid-chromatography-coupled mass spectrometry (LC–MS)

[18] = The drug is tested on Bacteroides fragilis strain: HMW610 for biotransformation. The drug concentrations were measured before and after a 12-h incubation by liquid-chromatography-coupled mass spectrometry (LC–MS); details: 2 µM
[19] = bacteroides intestinalis, 12 h, 2 µM
Description: The drug is tested on Bacteroides intestinalis strain: DSM17393 for biotransformation. The drug concentrations were measured before and after a 12-h incubation by liquid-chromatography-coupled mass spectrometry (LC–MS)

[20] = The drug is tested on Bacteroides pectinophilus strain: ATCC43243 for biotransformation. The drug concentrations were measured before and after a 12-h incubation by liquid-chromatography-coupled mass spectrometry (LC–MS); details: 2 µM

Measured: Bacterial Biotransformation

CN(C/C=C/C#CC(C)(C)C)Cc1cccc2ccccc12 [TERBINAFINE]
Compound NOT metabolized: all assays above

CN1[C@@H]2CC[C@H]1C[C@@H](OC(=O)c1c[nH]c3ccccc13)C2 [TROPISETRON]
Compound NOT metabolized: all assays above
